From ChEMBL document CHEMBL3045451, “Isolation and characterization of fungal inhibitors from Epichloë festucae” (2000)

Key:
[1] = system: Cryphonectria parasitica; test: Fungicidal activity against Cryphonectria parasitica assessed as inhibition of fungal growth at 12.5 ug after 7 days; type: functional; conditions: 168 h, read-out: DIZ
[2] = system: Cryphonectria parasitica; test: Fungicidal activity against Cryphonectria parasitica assessed as inhibition of fungal growth at 25 ug after 7 days; type: functional; conditions: 168 h, read-out: DIZ
[3] = system: Cryphonectria parasitica; test: Fungicidal activity against Cryphonectria parasitica assessed as inhibition of fungal growth at 50 ug after 7 days; type: functional; conditions: 168 h, read-out: DIZ
[4] = system: Cryphonectria parasitica; test: Fungicidal activity against Cryphonectria parasitica assessed as inhibition of fungal growth at 100 ug after 7 days; type: functional; conditions: 168 h, read-out: DIZ
[5] = system: Laetisaria fuciformis; test: Fungicidal activity against Laetisaria fuciformis assessed as inhibition of fungal growth at 10 to 1000 mg/L; type: functional, organism-based
[6] = system: Magnaporthiopsis poae; test: Fungicidal activity against Magnaporthe poae assessed as inhibition of fungal growth at 10 to 1000 mg/L; type: functional, organism-based
[7] = system: Rhizoctonia solani; test: Fungicidal activity against Rhizoctonia solani assessed as inhibition of fungal growth at 10 to 1000 mg/L; type: functional, organism-based

Compound	zone of inhibition at 12.5 µg/disc [1]	zone of inhibition at 25 µg/disc [2]	zone of inhibition at 50 µg/disc [3]	zone of inhibition at 100 µg/disc [4]	growth inhibition (GI) [5]	growth inhibition (GI) [6]	growth inhibition (GI) [7]
CC(C)=CCC[C@@](C)(O)[C@H]1CC[C@](C)(O)[C@@H]1C [CYCLONERODIOL]	0 mm	0 mm	0 mm	13 mm			
COC(=O)c1c[nH]c2ccccc12	4 mm	6 mm	8 mm	11 mm			
O=Cc1c[nH]c2ccccc12 [3-FORMYLINDOLE]	7 mm	10 mm	13 mm	15 mm			
O=C(O)Cc1c[nH]c2ccccc12 [INDOLE-3-ACETIC ACID]	12 mm	14 mm	16 mm	21 mm	Dose-dependent effect	Dose-dependent effect	Dose-dependent effect
OCCc1c[nH]c2ccccc12 [TRYPTOPHOL]	7 mm	9 mm	11 mm	14 mm	Dose-dependent effect	Dose-dependent effect	Dose-dependent effect
CC(=O)NC(C)=O [DIACETAMIDE]	3 mm	7 mm	10 mm	14 mm			
